Data reported in publication PMC5218480 (PLoS ONE, 2017).

Test system: MV-4-11 cells
Test: Gene expression microarray analysis (Affymetrix PrimeView) and GSEA
Assay type: cell-based, human
Parameters: RFU PODN (11730768_x_at) / Fold change /veh PODN (11730768_x_at) / RFU LINC00158 (11744669_a_at) / Fold change /veh LINC00158 (11744669_a_at) / RFU DUSP10 (11751237_a_at) / Fold change /veh DUSP10 (11751237_a_at) / RFU ID3 (11757404_x_at) / Fold change /veh ID3 (11757404_x_at) / RFU PLEKHG5 (11737974_s_at) / Fold change /veh PLEKHG5 (11737974_s_at) / RFU LRRC4B (11730491_at) / Fold change /veh LRRC4B (11730491_at) / RFU GIMAP4 (11747438_a_at) / Fold change /veh GIMAP4 (11747438_a_at) / RFU KRT8 (11758183_x_at) / Fold change /veh KRT8 (11758183_x_at) / RFU CNN1 (11734310_a_at) / Fold change /veh CNN1 (11734310_a_at) / RFU VPS37D (11726825_at) / Fold change /veh VPS37D (11726825_at) / RFU C10orf10 (11716522_x_at) / Fold change /veh C10orf10 (11716522_x_at) / RFU KIR2DL2 /// KIR2DL4 /// KIR2DL5A /// KIR2DL5B /// KIR2DS1 /// KIR2DS2 /// KIR2DS3 /// KIR2DS4 /// KIR3DL3 /// KIR3DL3 /// KIR3DS1 (11738374_at) / Fold change /veh KIR2DL2 /// KIR2DL4 /// KIR2DL5A /// KIR2DL5B /// KIR2DS1 /// KIR2DS2 /// KIR2DS3 /// KIR2DS4 /// KIR3DL3 /// KIR3DL3 /// KIR3DS1 (11738374_at) / RFU C1QL1 (11718748_at) / Fold change /veh C1QL1 (11718748_at) / RFU TMPRSS4 (11747572_a_at) / Fold change /veh TMPRSS4 (11747572_a_at) / RFU HAMP (11756126_x_at) / Fold change /veh HAMP (11756126_x_at) / RFU RNFT2 (11725882_a_at) / Fold change /veh RNFT2 (11725882_a_at) / RFU NR4A2 (11747474_a_at) / Fold change /veh NR4A2 (11747474_a_at) / RFU ABCC12 (11746883_a_at) / Fold change /veh ABCC12 (11746883_a_at) / RFU TMEM136 (11760407_x_at) / Fold change /veh TMEM136 (11760407_x_at) / RFU CLDN22 /// WWC2 (11732394_at) / Fold change /veh CLDN22 /// WWC2 (11732394_at) / RFU HLA-DPB1 (11760878_x_at) / Fold change /veh HLA-DPB1 (11760878_x_at) / RFU SPINT1 (11716480_a_at) / Fold change /veh SPINT1 (11716480_a_at) / RFU GAP43 (11754022_s_at) / Fold change /veh GAP43 (11754022_s_at) / RFU A4GNT (11735810_at) / Fold change /veh A4GNT (11735810_at) / RFU PRB3 (11715151_x_at) / Fold change /veh PRB3 (11715151_x_at) / RFU TUBB4B (11761932_at) / Fold change /veh TUBB4B (11761932_at) / RFU CAPN14 (11732068_a_at) / Fold change /veh CAPN14 (11732068_a_at) / RFU TMCC2 (11721928_a_at) / Fold change /veh TMCC2 (11721928_a_at) / RFU IRGQ (11745062_a_at) / Fold change /veh IRGQ (11745062_a_at) / RFU FAM174B (11720279_a_at) / Fold change /veh FAM174B (11720279_a_at) / RFU TMPRSS4 (11748680_a_at) / Fold change /veh TMPRSS4 (11748680_a_at) / RFU FAM212B (11763350_a_at) / Fold change /veh FAM212B (11763350_a_at) / RFU PLEKHG5 (11743358_a_at) / Fold change /veh PLEKHG5 (11743358_a_at) / RFU ZSCAN30 (11745921_a_at) / Fold change /veh ZSCAN30 (11745921_a_at) / RFU CMKLR1 (11741424_a_at) / Fold change /veh CMKLR1 (11741424_a_at) / RFU LOC101060620 /// MAPK8IP1 (11723275_at) / Fold change /veh LOC101060620 /// MAPK8IP1 (11723275_at) / RFU SPTSSB (11747773_x_at) / Fold change /veh SPTSSB (11747773_x_at) / RFU PRSS12 (11739890_at) / Fold change /veh PRSS12 (11739890_at) / RFU BIN1 (11741810_x_at) / Fold change /veh BIN1 (11741810_x_at) / RFU WNT11 (11732464_a_at) / Fold change /veh WNT11 (11732464_a_at) / RFU C10orf10 (11716521_a_at) / Fold change /veh C10orf10 (11716521_a_at) / RFU C5orf56 (11738089_at) / Fold change /veh C5orf56 (11738089_at) / RFU CYB561 (11721691_x_at) / Fold change /veh CYB561 (11721691_x_at) / RFU ANKRD19P (11752326_a_at) / Fold change /veh ANKRD19P (11752326_a_at) / RFU OR2T12 /// OR2T33 /// OR2T8 (11738714_s_at) / Fold change /veh OR2T12 /// OR2T33 /// OR2T8 (11738714_s_at) / RFU VCAN (11748164_a_at) / Fold change /veh VCAN (11748164_a_at) / RFU JSRP1 (11732532_at) / Fold change /veh JSRP1 (11732532_at) / RFU KRTAP10-11 (11738290_x_at) / Fold change /veh KRTAP10-11 (11738290_x_at) / RFU MYO3A (11730013_a_at) / Fold change /veh MYO3A (11730013_a_at) / RFU EBF3 (11725865_a_at) / Fold change /veh EBF3 (11725865_a_at) / RFU CAMK2N1 (11719241_x_at) / Fold change /veh CAMK2N1 (11719241_x_at) / RFU C5orf56 (11738088_a_at) / Fold change /veh C5orf56 (11738088_a_at) / RFU OLFML3 (11715873_a_at) / Fold change /veh OLFML3 (11715873_a_at) / RFU LOC100653217 /// NTM (11731650_a_at) / Fold change /veh LOC100653217 /// NTM (11731650_a_at) / RFU MAPK11 (11762145_a_at) / Fold change /veh MAPK11 (11762145_a_at) / RFU FIZ1 (11724087_x_at) / Fold change /veh FIZ1 (11724087_x_at) / RFU OASL (11726364_x_at) / Fold change /veh OASL (11726364_x_at) / RFU SOX15 (11748057_x_at) / Fold change /veh SOX15 (11748057_x_at) / RFU CD79A (11719716_a_at) / Fold change /veh CD79A (11719716_a_at) / RFU HIST1H1D (11736915_at) / Fold change /veh HIST1H1D (11736915_at) / RFU CASKIN2 (11723855_a_at) / Fold change /veh CASKIN2 (11723855_a_at) / RFU LOC730098 (11760151_x_at) / Fold change /veh LOC730098 (11760151_x_at) / RFU OR4N2 (11742367_at) / Fold change /veh OR4N2 (11742367_at) / RFU PRRT2 (11749266_a_at) / Fold change /veh PRRT2 (11749266_a_at) / RFU SNX32 (11753110_a_at) / Fold change /veh SNX32 (11753110_a_at) / RFU CDHR5 (11726645_a_at) / Fold change /veh CDHR5 (11726645_a_at) / RFU RCAN1 (11760418_a_at) / Fold change /veh RCAN1 (11760418_a_at) / RFU FAM167A (11723789_a_at) / Fold change /veh FAM167A (11723789_a_at) / RFU FAM26E (11764081_at) / Fold change /veh FAM26E (11764081_at) / RFU ISYNA1 (11749810_s_at) / Fold change /veh ISYNA1 (11749810_s_at) / RFU ACY1 (11761880_at) / Fold change /veh ACY1 (11761880_at) / RFU 11764098_at / Fold change /veh 11764098_at / RFU SAMD14 (11745864_x_at) / Fold change /veh SAMD14 (11745864_x_at) / RFU NPB (11741838_a_at) / Fold change /veh NPB (11741838_a_at) / RFU TMPRSS6 (11731388_a_at) / Fold change /veh TMPRSS6 (11731388_a_at) / RFU KRTAP10-2 (11738614_at) / Fold change /veh KRTAP10-2 (11738614_at) / RFU ARHGAP8 /// PRR5-ARHGAP8 (11727945_x_at) / Fold change /veh ARHGAP8 /// PRR5-ARHGAP8 (11727945_x_at) / RFU KRTAP5-7 /// NADSYN1 (11734609_at) / Fold change /veh KRTAP5-7 /// NADSYN1 (11734609_at) / RFU RASL12 (11751679_a_at) / Fold change /veh RASL12 (11751679_a_at) / RFU CDKN2B (11736163_a_at) / Fold change /veh CDKN2B (11736163_a_at) / RFU PRF1 (11729649_at) / Fold change /veh PRF1 (11729649_at) / RFU, ZNF638 /// ZNF638-IT1 / Fold change vs veh, ZNF638 /// ZNF638-IT1 / RFU, PANK3 / Fold change vs veh, PANK3 / RFU, SH3YL1 / Fold change vs veh, SH3YL1 / RFU, ZEB2 / Fold change vs veh, ZEB2 / RFU, NRIP1 / Fold change vs veh, NRIP1 / RFU, PTTG1IP / Fold change vs veh, PTTG1IP / RFU, CAPN2 / Fold change vs veh, CAPN2 / RFU, MED14 / Fold change vs veh, MED14 / RFU, SNORA58 / Fold change vs veh, SNORA58 / RFU, C1orf63 / Fold change vs veh, C1orf63 / RFU, LRRFIP1 / Fold change vs veh, LRRFIP1 / RFU, NDUFAF7 / Fold change vs veh, NDUFAF7 / RFU, SLC12A2 / Fold change vs veh, SLC12A2 / RFU, IBTK / Fold change vs veh, IBTK / RFU, ESF1 / Fold change vs veh, ESF1 / Fold change vs veh, TMEM50B / RFU, TAOK1 / Fold change vs veh, TAOK1 / RFU, ACBD3 / Fold change vs veh, ACBD3 / RFU, TMA16 / Fold change vs veh, TMA16 / RFU, RWDD3 / Fold change vs veh, RWDD3 / RFU, BCAT1 / Fold change vs veh, BCAT1 / RFU, EDEM3 / Fold change vs veh, EDEM3 / RFU, TMEM33 / Fold change vs veh, TMEM33 / RFU, WDR75 / Fold change vs veh, WDR75 / RFU, AHCTF1 / Fold change vs veh, AHCTF1 / RFU, TFRC / Fold change vs veh, TFRC / RFU, ZDHHC17 / Fold change vs veh, ZDHHC17 / RFU, NOM1 / Fold change vs veh, NOM1 / RFU, ARL8B / Fold change vs veh, ARL8B / RFU, ZBTB11 / Fold change vs veh, ZBTB11 / RFU, TAMM41 / Fold change vs veh, TAMM41 / RFU, KIAA1704 /// LOC100996395 / Fold change vs veh, KIAA1704 /// LOC100996395 / RFU, ING1 / Fold change vs veh, ING1 / RFU, TRMT61B / Fold change vs veh, TRMT61B / RFU, FUBP3 / Fold change vs veh, FUBP3 / RFU, TP53 / Fold change vs veh, TP53 / RFU, TNKS2 / Fold change vs veh, TNKS2 / RFU, ZFP14 / Fold change vs veh, ZFP14 / RFU, ACTR2 / Fold change vs veh, ACTR2 / RFU, PPP3R1 / Fold change vs veh, PPP3R1 / RFU, PIK3R1 / Fold change vs veh, PIK3R1 / RFU, HNRNPA1 / Fold change vs veh, HNRNPA1 / RFU, RNF170 / Fold change vs veh, RNF170 / RFU, ZNF28 / Fold change vs veh, ZNF28 / RFU, RNGTT / Fold change vs veh, RNGTT / RFU, OGT / Fold change vs veh, OGT / RFU, BRD1 / Fold change vs veh, BRD1 / RFU, MARS / Fold change vs veh, MARS / RFU, ZNF655 / Fold change vs veh, ZNF655 / RFU, FAHD1 / Fold change vs veh, FAHD1 / RFU, BDP1 / Fold change vs veh, BDP1 / RFU, LRRCC1 / Fold change vs veh, LRRCC1 / RFU, ARID1A / Fold change vs veh, ARID1A / RFU, ZNF146 / Fold change vs veh, ZNF146 / RFU, ZNF330 / Fold change vs veh, ZNF330 / RFU, GPN3 / Fold change vs veh, GPN3 / RFU, C9orf123 / Fold change vs veh, C9orf123 / RFU, N4BP2L2 / Fold change vs veh, N4BP2L2 / RFU, ARFIP1 / Fold change vs veh, ARFIP1 / RFU, FAM179B / Fold change vs veh, FAM179B / RFU, BCL10 / Fold change vs veh, BCL10 / RFU, UHRF1BP1L / Fold change vs veh, UHRF1BP1L / RFU, BET1 / Fold change vs veh, BET1 / RFU, CNOT2 / Fold change vs veh, CNOT2 / RFU, ZNF268 / Fold change vs veh, ZNF268 / Fold change vs veh, ZNF507 / RFU, DGCR2 / Fold change vs veh, DGCR2 / RFU, WDSUB1 / Fold change vs veh, WDSUB1 / Fold change vs veh, HSP90B1 /// MIR3652 / RFU, ADSS / Fold change vs veh, ADSS / RFU, GK / Fold change vs veh, GK / RFU, ZNF148 / Fold change vs veh, ZNF148 / RFU, TAF9 / Fold change vs veh, TAF9 / RFU, SLC1A5 / Fold change vs veh, SLC1A5 / RFU, SLMO2 / Fold change vs veh, SLMO2 / RFU, ABCC4 / Fold change vs veh, ABCC4 / RFU, LOC101060439 /// RAP1B / Fold change vs veh, LOC101060439 /// RAP1B / RFU, RFX7 / Fold change vs veh, RFX7 / RFU, GTPBP10 / Fold change vs veh, GTPBP10 / RFU, CNEP1R1 / Fold change vs veh, CNEP1R1 / RFU, BIVM-ERCC5 /// ERCC5 / Fold change vs veh, BIVM-ERCC5 /// ERCC5 / RFU, ILF3 / Fold change vs veh, ILF3 / RFU 11762660_at / Fold change /veh 11762660_at / RFU VCAN (11757783_s_at) / Fold change /veh VCAN (11757783_s_at) / RFU DDX43 (11728927_at) / Fold change /veh DDX43 (11728927_at) / RFU KRT8 (11758188_x_at) / Fold change /veh KRT8 (11758188_x_at) / RFU NKD1 (11759106_at) / Fold change /veh NKD1 (11759106_at) / RFU SRD5A1 (11742802_a_at) / Fold change /veh SRD5A1 (11742802_a_at) / RFU TPSAB1 /// TPSB2 (11721975_s_at) / Fold change /veh TPSAB1 /// TPSB2 (11721975_s_at) / RFU GSTM3 (11746129_a_at) / Fold change /veh GSTM3 (11746129_a_at) / RFU IL23R (11737362_x_at) / Fold change /veh IL23R (11737362_x_at) / RFU TMEM51 (11727254_a_at) / Fold change /veh TMEM51 (11727254_a_at) / RFU PIWIL2 (11732686_x_at) / Fold change /veh PIWIL2 (11732686_x_at) / RFU ORM1 (11744905_x_at) / Fold change /veh ORM1 (11744905_x_at) / RFU CCDC152 (11743942_at) / Fold change /veh CCDC152 (11743942_at) / RFU ECM1 (11717891_a_at) / Fold change /veh ECM1 (11717891_a_at) / RFU IL23R (11748794_a_at) / Fold change /veh IL23R (11748794_a_at) / RFU TNFAIP8L3 (11732012_x_at) / Fold change /veh TNFAIP8L3 (11732012_x_at) / RFU MBOAT4 (11741988_at) / Fold change /veh MBOAT4 (11741988_at) / RFU 11764193_at / Fold change /veh 11764193_at / RFU TMEM53 (11763286_at) / Fold change /veh TMEM53 (11763286_at) / RFU MAGEB2 (11727129_at) / Fold change /veh MAGEB2 (11727129_at) / RFU TMEM200A (11744735_a_at) / Fold change /veh TMEM200A (11744735_a_at) / RFU CCDC152 (11751479_a_at) / Fold change /veh CCDC152 (11751479_a_at) / RFU FAM211A (11726209_a_at) / Fold change /veh FAM211A (11726209_a_at) / RFU RGS16 (11746705_a_at) / Fold change /veh RGS16 (11746705_a_at) / RFU VCAN (11755009_s_at) / Fold change /veh VCAN (11755009_s_at) / RFU RHOB (11743442_s_at) / Fold change /veh RHOB (11743442_s_at) / RFU RGS16 (11720943_a_at) / Fold change /veh RGS16 (11720943_a_at) / RFU RGS16 (11720944_at) / Fold change /veh RGS16 (11720944_at) / RFU, VPS4B / Fold change vs veh, VPS4B / RFU, CREB1 / Fold change vs veh, CREB1 / RFU, DNAJC13 / Fold change vs veh, DNAJC13 / RFU, GNAQ / Fold change vs veh, GNAQ / RFU, CDK5R1 / Fold change vs veh, CDK5R1 / RFU, ZRANB3 / Fold change vs veh, ZRANB3 / RFU, CUL4A / Fold change vs veh, CUL4A / RFU, CCNY / Fold change vs veh, CCNY / RFU, UFL1 / Fold change vs veh, UFL1 / RFU, COG3 / Fold change vs veh, COG3 / RFU, DIAPH2 / Fold change vs veh, DIAPH2 / RFU, SKA2 / Fold change vs veh, SKA2 / RFU, AFF3 / Fold change vs veh, AFF3 / RFU, LMF1 / Fold change vs veh, LMF1 / RFU, IPO11 / Fold change vs veh, IPO11 / RFU, DFFB / Fold change vs veh, DFFB / RFU, FOXP1 / Fold change vs veh, FOXP1 / RFU, CARD8 / Fold change vs veh, CARD8 / RFU, STRN3 / Fold change vs veh, STRN3 / RFU, ADK / Fold change vs veh, ADK / RFU, RASSF2 / Fold change vs veh, RASSF2 / RFU, WIPF1 / Fold change vs veh, WIPF1 / RFU, LARP1B / Fold change vs veh, LARP1B / RFU, RASA1 / Fold change vs veh, RASA1 / RFU, RB1 / Fold change vs veh, RB1 / RFU, PPFIA1 / Fold change vs veh, PPFIA1 / RFU, MAT2A / Fold change vs veh, MAT2A / RFU, CCT5 / Fold change vs veh, CCT5 / RFU, WDR92 / Fold change vs veh, WDR92 / RFU, CUX1 / Fold change vs veh, CUX1 / RFU, TTC7A / Fold change vs veh, TTC7A / RFU, TMEM135 / Fold change vs veh, TMEM135 / RFU, DEPTOR / Fold change vs veh, DEPTOR / RFU, CPM / Fold change vs veh, CPM / RFU, DNAJB6 / Fold change vs veh, DNAJB6 / RFU, CACNA2D3 / Fold change vs veh, CACNA2D3 / RFU, DTX4 / Fold change vs veh, DTX4 / RFU, TFCP2 / Fold change vs veh, TFCP2 / RFU, GMCL1 /// GMCL1P1 / Fold change vs veh, GMCL1 /// GMCL1P1 / RFU, AEBP2 / Fold change vs veh, AEBP2 / RFU, SNHG1 /// SNORD22 /// SNORD25 /// SNORD26 /// SNORD27 /// SNORD28 /// SNORD29 /// SNORD31 / Fold change vs veh, SNHG1 /// SNORD22 /// SNORD25 /// SNORD26 /// SNORD27 /// SNORD28 /// SNORD29 /// SNORD31 / Fold change (Aza/veh), C12orf56 (ProbeSet 11735607_a_at) / Fold change (ACY-1035/veh), C12orf56 (ProbeSet 11735607_a_at) / Fold change (Aza/veh), FGFR1OP (ProbeSet 11751329_s_at) / Fold change (ACY-1035/veh), FGFR1OP (ProbeSet 11751329_s_at) / Fold change (Aza/veh), VPS36 (ProbeSet 11739960_a_at) / Fold change (ACY-1035/veh), VPS36 (ProbeSet 11739960_a_at) / RFU SYPL1 (11715823_x_at) / Fold change /veh SYPL1 (11715823_x_at) / RFU IGFBP7 (11715501_s_at) / Fold change /veh IGFBP7 (11715501_s_at) / RFU REEP3 (11722064_at) / Fold change /veh REEP3 (11722064_at) / RFU IGLL1 (11728026_x_at) / Fold change /veh IGLL1 (11728026_x_at): dose or concentration left out as unconfirmed
Details: MV-4-11 cells, 48 hours

SMILES: Nc1ncn([C@@H]2O[C@H](CO)[C@@H](O)[C@H]2O)c(=O)n1 [azacitidine]
- Fold change /veh EBF3 (11725865_a_at): 1.12
